Results on five compounds are retold here after patent publication US4775681A, “Method of treating fungal infections with trans-6-[2-substitutedpyrrol-1-yl)alkyl]-4-hydroxypyran-2-ones” (Warner-Lambert Company, priority 1987, dated 1988).

Values after ≈ are worked out from the molar mass of the structure shown. Counter-ions that a name gives are not always drawn. Some results are limits rather than exact numbers.

Assay in all cases: Antifungal susceptibility, microbroth dilution MIC
Holding throughout (format): cell-based
(Dilution methods test growth across graded concentrations, often in twofold steps.)

For test [1], the system named is Candida albicans. Here is the method: (§1) The antimicrobial susceptibilities of eleven strains of Candida albicans, two strains of Candida tropicans, and one strain each of Torulopsis glabrata and Cryptococcus neoformans to several representative compounds of the present invention were tested. For comparison, the known antifungal agents amphotericin-B and ketoconazole were also tested. Minimal inhibitory concentrations (MIC's) for each compound were determined using the microbroth dilution technique described by S. Shadomy, et al, "Laboratory Studies with Antifungal Agents: Susceptibility Tests and Bioassays," pp. 991-999 in Manual Clin. Microbiol., 4th Ed., Amer. Soc. For Microbiol., Washington, D.C., 1985. The compounds tested are as follows and the results of the testing appear in the following Table.

In test [2] the test system is Candida tropicans. Here is the method: as §1
Test [3] concerns Cryptococcus neoformans. As to conditions: strain 1678, 24 hours. Here is the method: as §1
Test [4] has as its system Torulopsis glabrata. As to conditions: Nakaseomyces glabratus; strain 1581; 24 hours. The protocol: as §1
[5] abbreviates: ATCC10231, 24 h, strain ATCC 10231.
Setting [6] is: ATCC13803, strain ATCC 13803, 24 hours.

As to `CC(=O)N1CCN(c2ccc(OCC3COC(Cn4ccnc4)(c4ccc(Cl)cc4Cl)O3)cc2)CC1` (stereo not drawn) [Keto, Ketoconazole, reference compound], the minimum inhibitory concentration (MIC) in test [1] (24 h, strain 1570) is 0.25 mg/L (≈ 0.47 µM); in test [1] (24 h, strain 1571), 0.125 mg/L (≈ 0.235 µM); in test [1] (24 h, strain 1574), 0.25 mg/L (≈ 0.47 µM); in test [1] (24 h, strain 1575), 0.5 mg/L (≈ 0.941 µM); in test [1] (24 h, strain 1576), > 0.5 mg/L; in test [1] (24 h, strain 1577), 0.125 mg/L (≈ 0.235 µM). Also, the MIC is 0.25 mg/L (≈ 0.47 µM) in test [1] (24 h, strain 1578); 0.5 mg/L (≈ 0.941 µM) in test [1] (24 h, strain 1579); 0.25 mg/L (≈ 0.47 µM) in test [1] (24 h, strain B4b); 0.25 mg/L (≈ 0.47 µM) in test [1] (24 h, strain M752); > 0.5 mg/L in test [1] (setting [5]); 0.5 mg/L (≈ 0.941 µM) in test [2] (setting [6]). Further, the minimum inhibitory concentration (MIC) was > 0.5 mg/L in test [2] (strain 1573, 24 hours); > 0.5 mg/L in test [3]; > 0.5 mg/L in test [4].

Regarding `CC(C)c1c(Br)c(Br)c(-c2ccc(F)cc2)n1CC[C@@H](O)C[C@@H](O)CC(=O)O` (relative stereo) [Compound 1, 3,4-Dibromo-2-(4-fluorophenyl)-β,δ-dihydroxy-5-(1-methylethyl)-1H-pyrrole-1-heptanoic acid, monosodium salt], the MIC in test [1] (24 h, strain 1570) was determined as 16 mg/L; in test [1] (24 h, strain 1571) it was 32 mg/L; in test [1] (24 h, strain 1574), 16 mg/L; in test [1] (24 h, strain 1575), 32 mg/L; in test [1] (24 h, strain 1576), 15 mg/L; in test [1] (24 h, strain 1577), 16 mg/L. For the same compound, the MIC in test [1] (24 h, strain 1578) came to 16 mg/L; in test [1] (24 h, strain 1579), 16 mg/L; in test [1] (24 h, strain B4b), 16 mg/L; in test [1] (24 h, strain M752) it was 32 mg/L; in test [1] (setting [5]), 16 mg/L; in test [2] (setting [6]), 64 mg/L. Also, the minimal inhibitory concentration (MIC) in test [2] (strain 1573, 24 hours) was 16 mg/L; in test [3], 128 mg/L; in test [4], 128 mg/L.

As for `CCOC(=O)c1c(Br)c(-c2ccc(F)cc2)n(CC[C@H]2C[C@H](O)CC(=O)O2)c1C(F)(F)F` (relative stereo) [Compound 2, trans-4-Bromo-5-(4-fluorophenyl)-1[2-(tetrahydro-4-hydroxy-6-oxo-2H-pyran-2-yl)-ethyl]-2-(trifluoromethyl)-1H-pyrrole-3-carboxylic acid, ethyl ester], the MIC came to 32 mg/L (≈ 61.3 µM) in test [1] (24 h, strain 1570); 64 mg/L (≈ 123 µM) in test [1] (24 h, strain 1571); 32 mg/L (≈ 61.3 µM) in test [1] (24 h, strain 1574); 32 mg/L (≈ 61.3 µM) in test [1] (24 h, strain 1575); 32 mg/L (≈ 61.3 µM) in test [1] (24 h, strain 1576); 32 mg/L (≈ 61.3 µM) in test [1] (24 h, strain 1577). Further, the MIC in test [1] (24 h, strain 1578) was determined as 32 mg/L (≈ 61.3 µM); in test [1] (24 h, strain 1579) it was 32 mg/L (≈ 61.3 µM); in test [1] (24 h, strain B4b) it was 16 mg/L (≈ 30.6 µM); in test [1] (24 h, strain M752), 32 mg/L (≈ 61.3 µM); in test [1] (setting [5]), 16 mg/L (≈ 30.6 µM); in test [2] (setting [6]), 64 mg/L (≈ 123 µM). The minimum inhibitory concentration (MIC) in test [2] (strain 1573, 24 hours) came out at 16 mg/L (≈ 30.6 µM); in test [3], 64 mg/L (≈ 123 µM); in test [4], 128 mg/L (≈ 245 µM).

For the compound `C[C@@H]1[C@H](O)[C@@H](C)/C=C/C=C/C=C/C=C/C=C/C=C/C=C/[C@H](O[C@@H]2O[C@H](C)[C@@H](O)[C@H](N)[C@@H]2O)C[C@@H]2O[C@](O)(C[C@@H](O)C[C@@H](O)[C@H](O)CC[C@@H](O)C[C@@H](O)CC(=O)O[C@H]1C)C[C@H](O)[C@H]2C(=O)O` [AMP-B, Amphotericin-B, reference compound], the minimum inhibitory concentration (MIC) was 8 mg/L (≈ 8.66 µM) in test [1] (24 h, strain 1570); 2 mg/L (≈ 2.16 µM) in test [1] (24 h, strain 1571); 4 mg/L (≈ 4.33 µM) in test [1] (24 h, strain 1574); 8 mg/L (≈ 8.66 µM) in test [1] (24 h, strain 1575); 4 mg/L (≈ 4.33 µM) in test [1] (24 h, strain 1576); 8 mg/L (≈ 8.66 µM) in test [1] (24 h, strain 1577). Moreover, the MIC in test [1] (24 h, strain 1578) worked out at 8 mg/L (≈ 8.66 µM); in test [1] (24 h, strain 1579) it was 4 mg/L (≈ 4.33 µM); in test [1] (24 h, strain B4b), 4 mg/L (≈ 4.33 µM); in test [1] (24 h, strain M752), 8 mg/L (≈ 8.66 µM); in test [1] (setting [5]), 4 mg/L (≈ 4.33 µM); in test [2] (setting [6]) it was 8 mg/L (≈ 8.66 µM). In addition, the MIC amounted to 4 mg/L (≈ 4.33 µM) in test [2] (strain 1573, 24 hours); 4 mg/L (≈ 4.33 µM) in test [3]; 8 mg/L (≈ 8.66 µM) in test [4].

Turning to `CC(C)c1c(Cl)c(Cl)c(-c2ccc(F)cc2)n1CC[C@@H](O)C[C@@H](O)CC(=O)O` (relative stereo) [Compound 3, 3,4-Dichloro-2-(4-fluorophenyl)-β,δ-hydroxy-5-(1-methylethyl)-1H-pyrrole-1-heptanoic acid, monosodium salt], the MIC is 64 mg/L in test [1] (24 h, strain 1570); 64 mg/L in test [1] (24 h, strain 1571); 64 mg/L in test [1] (24 h, strain 1574); 64 mg/L in test [1] (24 h, strain 1575); 64 mg/L in test [1] (24 h, strain 1576); 32 mg/L in test [1] (24 h, strain 1577). The MIC in test [1] (24 h, strain 1578) came out at 64 mg/L; in test [1] (24 h, strain 1579) it was 64 mg/L; in test [1] (24 h, strain B4b) it was 32 mg/L; in test [1] (24 h, strain M752), 64 mg/L; in test [1] (setting [5]), 32 mg/L; in test [2] (setting [6]) it was 128 mg/L. Also, the MIC in test [2] (strain 1573, 24 hours) was 32 mg/L; in test [3], 128 mg/L; in test [4], 128 mg/L.

For orientation: MIC means the smallest concentration in the dilution series that meets the test's criterion for growth inhibition.
